Values quoted from earlier work in patent US12130296B2, “Method for the direct detection and/or quantification of at least one compound with a molecular weight of at least 200” (SANIFIT THERAPEUTICS S.A., priority 2011, dated 2024).

Conditions: 12 dissociable protons; Carbohydr Res 46, 159-171; 1976

- pKa values: from negative values to more than 10
Compound: O=P(O)(O)O[C@H]1[C@H](OP(=O)(O)O)[C@@H](OP(=O)(O)O)[C@H](OP(=O)(O)O)[C@@H](OP(=O)(O)O)[C@H]1OP(=O)(O)O [inositol hexaphosphate]
